Measurements: US20230099344A1, “COMPOUNDS AND METHODS FOR THE TARGETED DEGRADATION OF IRAK-4” (Arvinas Operations, Inc., priority 2021, published 2023)

Tests used:
Format in all cases: cell-based
IL6 [1] = assay: LPS stimulated IL6 inhibition assay in PBMC; conditions: Homo sapiens, PBMC, 24 h, human PBMCs, LPS stimulation, compound overnight, IL6 by MSD after 24 hrs; for Dmax: read-out: LPS Stim IL6 inhibition Dmax; for IC50: read-out: LPS stim IL6 inhibition IC50
Method in brief: (§1)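 Read-out: MSD quantification of IL6 or IL8 in media collected 24 hrs after stimulation. Human PBMCs (2.0×10^6 cells/mL) received compound overnight before stimulant dosing at an EC50 concentration determined per donor.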

IL6 [2] = assay: R848 stimulated IL6 inhibition assay in PBMC; conditions: PBMC, human PBMCs, R848 stimulation, compound overnight, IL6 by MSD after 24 hrs; for Dmax: Homo sapiens, 24 h, read-out: R848 stim IL6 inhibition Dmax; for IC50: read-out: R848 stim IL6 inhibition IC50
Method in brief: as §1

IRAK-4 [3] = biological target: T1, IRAK-4 (Homo sapiens, UniProt Q9NWZ3); assay: IRAK-4 ELISA, OCI-Ly10 degradation; set-up: endogenous in cells; conditions: treated overnight; for Dmax: OCI-Ly10, OCI-Ly10 cells; for DC50: OCI-Ly10 cells
T1 sequence (Q9NWZ3 1-460): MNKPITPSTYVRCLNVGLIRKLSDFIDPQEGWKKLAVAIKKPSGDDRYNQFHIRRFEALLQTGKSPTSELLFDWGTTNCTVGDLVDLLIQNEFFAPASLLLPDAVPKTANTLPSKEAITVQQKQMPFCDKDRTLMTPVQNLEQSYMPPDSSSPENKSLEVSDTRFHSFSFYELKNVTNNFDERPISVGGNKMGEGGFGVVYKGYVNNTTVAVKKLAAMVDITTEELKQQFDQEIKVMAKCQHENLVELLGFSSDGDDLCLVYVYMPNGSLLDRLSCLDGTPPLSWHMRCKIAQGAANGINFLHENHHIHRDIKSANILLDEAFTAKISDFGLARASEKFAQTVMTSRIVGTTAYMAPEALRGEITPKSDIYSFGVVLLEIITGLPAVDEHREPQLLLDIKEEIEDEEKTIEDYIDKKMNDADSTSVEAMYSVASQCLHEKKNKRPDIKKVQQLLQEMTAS
Method: Reagents: Human IRAK-4 Matched Antibody Pair Kit (Abcam ab218182) and ELISA Accessory Pack (Abcam ab210905).
Cell Treatment and Lysis:
1. OCI-Ly10: 200,000 cells are seeded at 1×10^6/ml in 96-well U-bottom plates 200 ul per well, treated with compound the same day. Incubate overnight. 2. PBMC: 800,000 cells are seeded at 2×10^6/ml in 96-well U-bottom deep-well plates, 400 ul per well, treated with compound the same day. Incubate overnight.
Cell lysate is collected and analyzed by ELISA for IRAK-4 levels.

IRAK-4 [4] = biological target: T1, IRAK-4; assay: IRAK-4 ELISA, PBMC degradation; set-up: endogenous in cells; host or cells: PBMC; conditions: treated overnight
Method in brief: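 Readout: IRAK-4 protein level in cell lysate, sandwich ELISA. Cells: OCI-Ly10 at 1×10^6/ml or PBMC at 2×10^6/ml, compound added same day, overnight incubation.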

IL6 [5] = assay: IL-1β stimulated IL6 inhibition assay in PBMC; conditions: human PBMCs, IL-1β stimulation, compound overnight, IL6 by MSD after 24 hrs; for Emax: read-out: IL1β stim IL6 inhibition Ymax; for IC50: read-out: IL1β stim IL6 inhibition IC50
Method: (§2) IL-1β, LPS, or R848 Stimulated IL6 Inhibition and IL-1β Stimulated IL8 Inhibition Assay
(§3) Human PBMC cells were seeded at 2.0×10^6 cells/mL, treated with compound overnight, and dosed with the EC50 concentration of each stimulant (either IL-1B. LPS, or R848) was determined for each donor. After 24 hrs, media was collected and analyzed by MSD for IL6 and/or IL8 levels.

IL8 = assay: IL-1β stimulated IL8 inhibition assay in PBMC; conditions: human PBMCs, IL-1β stimulation, compound overnight, IL8 by MSD after 24 hrs; for IC50: read-out: IL1β stim IL8 inhibition IC50; for Emax: read-out: IL1β stim IL8 inhibition Ymax
Method: as §2, §3

Row | IC50 (IL6 [1]) [nM] | IC50 (IL6 [2]) [nM] | Dmax (IRAK-4 [3]) [%] | DC50 (IRAK-4 [3]) [nM] | DC50 (IRAK-4 [4]) [nM] | Dmax (IRAK-4 [4]) [%] | PBMC DC90 (IRAK-4 [4]) | IC50 (IL6 [5]) [nM] | IC50 (IL6 [5]; Homo sapiens, PBMC, 24 h) [nM] | IC50 (IL8) [nM] | SMILES | Dmax (IL6 [1]) [%] | Dmax (IL6 [2]) [%] | Emax (IL6 [5]; PBMC) [%] | Emax (IL8) [%]
1 | 10 to 50 | 10 to 50 | ≥ 90 | < 10 | < 1 | ≥ 90 | A (A represents a DC90 value <10.0 nM) |  |  |  | CC(C)Oc1cc2c(cc1NC(=O)c1cnn3cccnc13)CN(C1CCN(C(C)(C)C3CCN(c4ccc5c(c4)C(=O)N(C4CCC(=O)NC4=O)C5=O)CC3)CC1)C2=O (centres unmarked) [Example 82] | 70 to 80 | ≥ 90 |  | 
2 |  |  |  |  | < 1 | ≥ 90 | A (A represents a DC90 value <10.0 nM) |  | < 10 | 10 to 50 | CN(C1CN(c2ccc3c(c2)C(=O)N(C2CCC(=O)NC2=O)C3=O)C1)[C@H]1CC[C@H](n2cc3cc(NC(=O)c4cnn5cccnc45)c(OCC4CC4)cc3n2)CC1 (some centres unmarked) [Example 336] |  |  | ≥ 90 | 70 to 80
3 |  |  | ≥ 90 | 10 to 50 | 5 to 10 | 70 to 80 | D (D represents a DC90 value ≥50 nM) |  |  |  | O=C1CCC(N2C(=O)c3ccc(N4CC(CN5CCC(N6Cc7cc(NC(=O)c8cnn9cccnc89)c(N8CCC(N9CCC9)CC8)cc7C6=O)CC5)C4)cc3C2=O)C(=O)N1 (centres unmarked) [Example 98] |  |  |  | 
4 |  |  | ≥ 90 | 10 to 50 | < 1 | ≥ 90 | A (A represents a DC90 value <10.0 nM) |  |  |  | O=C1CCC(N2C(=O)c3ccc(N4CCN(CCN5CCC([C@H](F)CN6Cc7cc(NC(=O)c8cnn9cccnc89)c(N8CCOCC8)cc7C6=O)CC5)CC4)cc3C2=O)C(=O)N1 (some centres unmarked) [Example 93] |  |  |  | 
5 |  |  |  |  | < 1 | ≥ 90 | A (A represents a DC90 value <10.0 nM) |  | < 10 | ≥ 100 | CC(C)Oc1nc2c(cc1NC(=O)c1cnn3cccnc13)CN(C1CCN(CC3CN(c4ccc5c(c4)C(=O)N(C4CCC(=O)NC4=O)C5=O)C3)CC1)C2=O (centres unmarked) [Example 398] |  |  | ≥ 90 | 
6 |  |  | 70 to 80 | 10 to 50 | 1 to 5 | ≥ 90 | A (A represents a DC90 value <10.0 nM) |  |  |  | O=C1CCC(N2C(=O)c3ccc(N4CCC(CN5CC[C@H](N6Cc7cc(NC(=O)c8cnn9cccnc89)c(N8CCOCC8)cc7C6=O)[C@@H](F)C5)CC4)cc3C2=O)C(=O)N1 (some centres unmarked) [Example 94] |  |  |  | 
7 |  |  |  |  | 5 to 10 | 80 to 90 | D (D represents a DC90 value ≥50 nM) |  | ≥ 100 | ≥ 100 | CC(C)Oc1nc2c(cc1NC(=O)c1cnn3cccnc13)CN(C1CCN(CCc3ccc4c(c3)C(=O)N(C3CCC(=O)NC3=O)C4=O)CC1)C2=O (centres unmarked) [Example 400] |  |  | ≥ 90 | 
8 | 10 to 50 | 10 to 50 | ≥ 90 | 10 to 50 |  |  |  |  |  |  | O=C1CCC(N2C(=O)c3ccc(N4CCC(CN5CCC(n6cc7cc(NC(=O)c8cnn9cc(Cl)cnc89)c(OCC8CC8)cc7n6)CC5)CC4)cc3C2=O)C(=O)N1 (centres unmarked) [Example 128] | 70 to 80 | 80 to 90 |  | 
9 |  |  | ≥ 90 | 50 to 100 | 5 to 10 | 80 to 90 | D (D represents a DC90 value ≥50 nM) |  |  |  | CC(C)(C1CCN(c2ccc3c(c2)C(=O)N(C2CCC(=O)NC2=O)C3=O)CC1)N1CCC(N2Cc3cc(NC(=O)c4cnn5cccnc45)c(OCC4CC4)cc3C2=O)CC1 (centres unmarked) [Example 87] |  |  |  | 
10 | 10 to 50 |  | 80 to 90 | 50 to 100 | < 1 | ≥ 90 | A (A represents a DC90 value <10.0 nM) |  |  |  | O=C1CCC(N2C(=O)c3ccc(N4CCC(F)(CN5CCC(N6Cc7cc(NC(=O)c8cnn9cccnc89)c(OCC8CC8)cc7C6=O)CC5)CC4)cc3C2=O)C(=O)N1 (centres unmarked) [Example 88] | 70 to 80 |  |  | 
11 |  |  |  |  | < 1 | 80 to 90 | A (A represents a DC90 value <10.0 nM) |  | < 10 | 10 to 50 | O=C1CCC(N2Cc3cc(N4CCC(CN5CCC(N6Cc7cc(NC(=O)c8cnn9cccnc89)c(OCC8CC8)cc7C6=O)CC5)CC4)ccc3C2=O)C(=O)N1 (centres unmarked) [Example 22] |  |  | ≥ 90 | 70 to 80
12 | 10 to 50 | 50 to 100 | ≥ 90 | 10 to 50 | < 1 | ≥ 90 | A (A represents a DC90 value <10.0 nM) |  |  |  | CC(C)Oc1cc2c(cc1NC(=O)c1cnn3cccnc13)CN(C1CCN(CC3(F)CN(c4ccc5c(c4)C(=O)N(C4CCC(=O)NC4=O)C5=O)C3)CC1)C2=O (centres unmarked) [Example 57, N-(2-(1-((1-(2-(2,6-dioxopiperidin-3-yl)-1,3-dioxoisoindolin-5-yl)-3-fluoroazetidin-3-yl)methyl)piperidin-4-yl)-6-isopropoxy-1-oxoisoindolin-5-yl)pyrazolo[1,5-a]pyrimidine-3-carboxamide] | 70 to 80 | ≥ 90 |  | 

Row | SMILES | IC50 (IL6 [1]) [nM] | IC50 (IL6 [2]) [nM] | Dmax (IRAK-4 [3]) [%] | DC50 (IRAK-4 [3]) [nM] | DC50 (IRAK-4 [4]) [nM] | Dmax (IRAK-4 [4]) [%] | PBMC DC90 (IRAK-4 [4]) | IC50 (IL6 [5]) [nM] | IC50 (IL6 [5]; Homo sapiens, PBMC, 24 h) [nM] | IC50 (IL8) [nM] | Dmax (IL6 [1]) [%] | Dmax (IL6 [2]) [%] | Emax (IL6 [5]; PBMC) [%] | Emax (IL8) [%]
13 | O=C1CCC(N2C(=O)c3ccc(N4CCC(CN5CCC(N6Cc7cc(NC(=O)c8cnn9cccnc89)c(N8CCOCC8)cc7C6=O)CC5)CC4)cc3C2=O)C(=O)N1 (centres unmarked) [Example 31] |  |  | 80 to 90 | < 10 | 1 to 5 | ≥ 90 | B (B represents a DC90 value ≥10.0 nM and <25.0 nM) | ≥ 100 |  |  |  |  | ≥ 90 | 
14 | O=C1CCC(N2C(=O)c3ccc(N4CCC(F)(CN5CCC(n6cc7cc(NC(=O)c8cnn9cccnc89)c(OCC8CC8)cc7n6)CC5)CC4)cc3C2=O)C(=O)N1 (centres unmarked) [Example 166] |  |  | ≥ 90 | 10 to 50 | 5 to 10 | ≥ 90 | C (C represents a DC90 value ≥25.0 nM and <50 nM) |  |  |  |  |  |  | 
15 | CC(C)Oc1cc2c(cc1NC(=O)c1cnn3cccnc13)CN(C1CCN(CC3CCN(c4cc5c(cc4F)C(=O)N(C4CCC(=O)NC4=O)C5=O)CC3)CC1)C2=O (centres unmarked) [Example 13] |  |  |  |  | < 1 | ≥ 90 | C (C represents a DC90 value ≥25.0 nM and <50 nM) |  | 10 to 50 | ≥ 100 |  |  | ≥ 90 | ≥ 90
16 | CC(C)Oc1cc2c(cc1NC(=O)c1cnn3cccnc13)CN([C@H]1CC[C@@H](N3CCN(c4ccc5c(c4)C(=O)N(C4CCC(=O)NC4=O)C5=O)CC3)CC1)C2=O (some centres unmarked) [Example 67] |  |  |  |  | 1 to 5 | ≥ 90 | C (C represents a DC90 value ≥25.0 nM and <50 nM) |  | 10 to 50 | ≥ 100 |  |  | ≥ 90 | ≥ 90
17 | CC(C)Oc1cc2c(cc1NC(=O)c1cnn3cccnc13)CN([C@H]1CCN(CC3CCN(c4ccc5c(c4)C(=O)N(C4CCC(=O)NC4=O)C5=O)CC3)C[C@@H]1F)C2=O (some centres unmarked) [Example 91] |  |  | ≥ 90 | 10 to 50 | 1 to 5 | ≥ 90 | B (B represents a DC90 value ≥10.0 nM and <25.0 nM) |  |  |  |  |  |  | 
18 | CC(C)Oc1cc2c(cc1NC(=O)c1cnn3cccnc13)CN(C1CCN(CC3(F)CCN(c4ccc5c(c4)C(=O)N(C4CCC(=O)NC4=O)C5=O)CC3)CC1)C2=O (centres unmarked) [Example 58] |  |  | ≥ 90 | 10 to 50 | 1 to 5 | ≥ 90 | B (B represents a DC90 value ≥10.0 nM and <25.0 nM) |  |  |  |  |  |  | 
